From patent publication US20080108702A1, “Use of Acetyl-Leucine for Preparing a Drug for Treating Balance Disorders” (priority 2005, published 2008)

How the values were obtained:
[1] = tested on: patients with an indication for acoustic neurinoma excision or for vestibular neurotomy; experiment: Ability to maintain a standing position eight days following neurotomy (randomized, placebo-controlled); format: in vivo, human
Method: Sixty patients with an indication for acoustic neurinoma excision or for vestibular neurotomy were included and randomized. Patients were treated for 60 days either with Tanganil® (six injections of two 500 mg vials by IV route, with an interval of 12 hours between injections, the first taking place one hour after the surgery, followed by an oral treatment at a dose of two 500 mg tablets, one in the morning and one in the evening) or with a placebo.
Vestibular deficit was measured according to the methods described in Vertigo and the practitioner [Les vertiges et le praticien] by P. Tran Ba Huy and C. De Waele (Coll Pathologie Sciences Formation [in French], Ed. John Libbey Eurotext, Paris, 1996) and in Vertigo [Les vertiges] by G. Rancurel, O. Sterkers, E. Vitte, foreword by G. Freyss (Ed. Méd. Spécia. [in French], 1989).
Vestibular reflex was tested at day zero (D0) before neurotomy by caloric testing to objectivize vestibular hyporeflexia or areflexia. This test consists of successively irrigating with warm water then cold the right external auditory meatus then the left, causing in the semicircular canal an endolymph current which moves the ampullary crest. Caloric response is expressed by the appearance of a nystagmus that beats toward the side of the stimulated ear when warm water is applied and toward the opposite side when cold water is applied. The nystagmic response was recorded by video nystagmography and its frequency calculated, i.e., the number of nystagmic beats occurring between the 60th and 90th seconds following the initiation of stimulation. This number quantifies the vestibular response.
The difference in responses between one ear and the other expresses so-called hypovalence, i.e., the difference between the warm and cold responses on the left side and the warm and cold responses on the right side, divided by the total number of responses. In normal subjects, hypovalence is less than 15%. Hypovalence is the main sign of damage to the peripheral vestibular apparatus.
The principle criterion was “able to maintain a standing position at D8” (Yes/No)

[2] = tested on: patients with an indication for acoustic neurinoma excision or for vestibular neurotomy; experiment: Symptoms (vertigo and vomiting) rated by patients on 10 cm visual analog scales (VAS); format: in vivo, human
Method: Sixty patients with an indication for acoustic neurinoma excision or for vestibular neurotomy were included and randomized. Patients were treated for 60 days either with Tanganil® (six injections of two 500 mg vials by IV route, with an interval of 12 hours between injections, the first taking place one hour after the surgery, followed by an oral treatment at a dose of two 500 mg tablets, one in the morning and one in the evening) or with a placebo. Subjective signs (vertigo and vomiting) were rated by patients on a 10 cm VAS from “absent” to “highly incapacitating”.

[3] = tested on: patients with an indication for acoustic neurinoma excision or for vestibular neurotomy; experiment: Balance evaluated by static posturography; format: in vivo, human
Method: Sixty patients with an indication for acoustic neurinoma excision or for vestibular neurotomy were included and randomized. Patients were treated for 60 days either with Tanganil® (six injections of two 500 mg vials by IV route, with an interval of 12 hours between injections, the first taking place one hour after the surgery, followed by an oral treatment at a dose of two 500 mg tablets, one in the morning and one in the evening) or with a placebo. Static posturography (not performed at D8 if the subject could not remain standing) was carried out in a standing position under four conditions (eyes open or closed, with or without foam carpeting). With foam carpeting and/or eyes closed, patients are placed under conditions which minimize the role of visual and proprioceptive information. Shifts in a subject's center of gravity during a given time period are recorded in a statokinesigram. This plot makes it possible to study oscillation amplitudes and surface areas. “Anteroposterior” oscillations can be separated from “right-left” oscillations.

[4] = tested on: vertigo symptomatology; details: clinical results reported by various authors; cited from earlier work
[5] = tested on: guinea pig after unilateral labyrinthectomy; details: cited from earlier work
[6] = tested on: cats having undergone vestibular neurotomy; details: oral route, 28 mg per kg per day; cats after vestibular neurotomy; cited from earlier work
[7] = tested on: mouse median vestibular neurons (MVN); experiment: Electrophysiological study in current clamp mode on median vestibular neurons; format: cell-based; details: for effect on action potentials of depolarized neurons: depolarized neurons (approximately −35 mV), after several minutes of application; for Membrane potential: hyperpolarized neurons (approximately −70 mV); for Action potential frequency / Action potential height / Depolarization threshold / Resting potential: neurons spontaneously active at the resting potential
Method: An electrophysiological study was conducted on mouse median vestibular neurons (MVN) in which the membrane potential was artificially maintained at various resting values. In this study, the effects of the D and L enantiomers of acetyl-leucine (1 mM) were tested on the membrane properties of neurons in “current clamp” mode at various membrane potential values: normal membrane potential (approximately −45 mV), potential maintained at a hyperpolarized level of approximately −70 mV or potential maintained at a depolarized level of approximately −35 mV.

[8] = tested on: surgical unilateral neurotomy model in the cat; experiment: Surgical unilateral neurotomy model (preliminary tests); format: in vivo

## CC(=O)N[C@@H](CC(C)C)C(=O)O (racemic) [Tanganil®, acetyl-leucine]
[1]; 25 patients whose vestibular deficit was greater than 75%
  difference between the two treatment groups, able to maintain a standing position at D8: no significant difference
[1]; 31 patients whose vestibular deficit was less than or equal to 75%, χ^2=0.048
  difference between the two treatment groups, able to maintain a standing position at D8: statistically significant difference
[1]; patient population exhibiting no vestibular functioning before neurotomy
  effect on compensation after neurotomy: no effect
[1]; patients exhibiting residual vestibular functioning
  effect on compensation after neurotomy: accelerates the compensation
[1]; principle analysis of 49 patients
  difference between Tanganil and placebo, able to maintain a standing position at D8: no statistically significant difference
[1]; principle analysis of 49 patients, 13 of 22 patients given Tanganil, IV then oral treatment
  patients able to maintain a standing position at D8: 59.1%
[1]; subgroup with vestibular deficit less than or equal to 75%, 12 of 16 patients
  patients able to maintain a standing position at D8: 75%
[2]; D8, vestibular deficit less than or equal to 75%
  average change on the vertigo VAS: −23.5 mm
[2]; D8, vestibular deficit less than or equal to 75%, Wilcoxon test p=0.037
  difference vs placebo on vertigo VAS: statistically significant difference
[2]; vestibular deficit greater than 75%
  difference vs placebo on vomiting VAS: No significant difference
[2]; vestibular deficit greater than 75%, Wilcoxon test p=0.154
  difference vs placebo on vertigo VAS: no significant difference
[2]; vestibular deficit less than or equal to 75%, significant difference between the two groups
  effect on vomiting VAS vs placebo: reduction in vomiting severity
[3]; D8, vestibular deficit greater than 75%, eyes open or closed and/or with or without foam
  static posturography, difference vs placebo: either no significant difference was observed between Tanganil® and the placebo or a significant difference was observed between the two groups in favor of the placebo
[3]; D8, vestibular deficit less than or equal to 75%, with foam, eyes open, p=0.034 vs placebo
  right/left posturography (postural oscillations): +7.9 mm
[3]; D8, without foam, eyes open test
  right/left posturography, difference vs placebo: no significant difference
[3]; vestibular deficit less than or equal to 75%, regardless of experimental conditions
  static posturography, difference vs placebo: significant difference between treatment groups in favor of Tanganil®
[3]; vestibular deficit less than or equal to 75%, with foam, eyes closed, p=0.016 vs placebo
  right/left posturography (postural oscillations): +5.4 mm
[3]; vestibular deficit less than or equal to 75%, without foam, eyes closed, p=0.028 vs placebo
  right/left posturography (postural oscillations): +2.8 mm
[4]
  cases with improvement in vertigo symptomatology, including the disappearance of vertigo attacks: more than 95%
[5]; after unilateral labyrinthectomy in the guinea pig
  effect on vestibular compensation: accelerate vestibular compensation
[5]; guinea pig
  effect on normal vestibular functioning: no effect
[6]
  effect on recovery of locomotor equilibrium: facilitates the recovery of locomotor equilibrium

## CC(=O)N[C@H](CC(C)C)C(=O)O [Acetyl-D-leucine]
[7]; 1 mM
  effect on action potentials of depolarized neurons: action potentials stop due to blocking of the membrane potential at a more depolarized level
[7]; before application (baseline)
  Membrane potential: −72.2 ± 5.2 mV
  Action potential frequency: 11.5 ± 6.8 Hz
  Action potential height: 59.0 ± 7.7 mV
  Depolarization threshold: −28.1 ± 4.5 mV
  Resting potential: −42.7 ± 3.6 mV
[7]; during application, 1 mM
  Membrane potential: −67.2 ± 4.6 mV
  Action potential frequency: 8.9 ± 7.7 Hz
  Action potential height: 50.7 ± 17.3 mV
  Depolarization threshold: −27.0 ± 10.2 mV
  Resting potential: −42.0 ± 3.6 mV
[7]; hyperpolarized neurons, 1 mM
  effect on the membrane potential of hyperpolarized neurons: significantly increases
[8]
  activity in surgical unilateral neurotomy model: active

## CC(=O)N[C@@H](CC(C)C)C(=O)O [Acetyl-L-leucine]
[7]; 1 mM
  effect on action potentials of depolarized neurons: not observed
[7]; before application (baseline)
  Membrane potential: −70.0 ± 2.1 mV
  Action potential frequency: 14.1 ± 9.0 Hz
  Action potential height: 59.0 ± 7.3 mV
  Depolarization threshold: −30.4 ± 5.6 mV
  Resting potential: −44.5 ± 2.1 mV
[7]; during application, 1 mM
  Membrane potential: −71.6 ± 3.2 mV
  Action potential frequency: 12.4 ± 7.8 Hz
  Action potential height: 49.8 ± 11.4 mV
  Depolarization threshold: −27.7 ± 8.4 mV
  Resting potential: −42.7 ± 3.7 mV
[8]
  activity in surgical unilateral neurotomy model: active
